Columns and labels:
[1] = target: Fibroblast growth factor receptor 1 (Homo sapiens) (UniProt P11362); assay: Inhibition of FGFR1 assessed as activity remaining at 10 uM
[2] = target: Hepatocyte growth factor receptor (Homo sapiens) (UniProt P08581); assay: Inhibition of Met assessed as activity remaining at 10 uM
[3] = target: High affinity nerve growth factor receptor (Homo sapiens) (UniProt P04629); assay: Inhibition of TrkA assessed as activity remaining at 10 uM
[4] = target: T1, Serine/threonine-protein kinase TBK1 (Homo sapiens) (UniProt Q9UHD2); assay: Inhibition of TBK1 assessed as activity remaining at 10 uM
T1 sequence (whole entry): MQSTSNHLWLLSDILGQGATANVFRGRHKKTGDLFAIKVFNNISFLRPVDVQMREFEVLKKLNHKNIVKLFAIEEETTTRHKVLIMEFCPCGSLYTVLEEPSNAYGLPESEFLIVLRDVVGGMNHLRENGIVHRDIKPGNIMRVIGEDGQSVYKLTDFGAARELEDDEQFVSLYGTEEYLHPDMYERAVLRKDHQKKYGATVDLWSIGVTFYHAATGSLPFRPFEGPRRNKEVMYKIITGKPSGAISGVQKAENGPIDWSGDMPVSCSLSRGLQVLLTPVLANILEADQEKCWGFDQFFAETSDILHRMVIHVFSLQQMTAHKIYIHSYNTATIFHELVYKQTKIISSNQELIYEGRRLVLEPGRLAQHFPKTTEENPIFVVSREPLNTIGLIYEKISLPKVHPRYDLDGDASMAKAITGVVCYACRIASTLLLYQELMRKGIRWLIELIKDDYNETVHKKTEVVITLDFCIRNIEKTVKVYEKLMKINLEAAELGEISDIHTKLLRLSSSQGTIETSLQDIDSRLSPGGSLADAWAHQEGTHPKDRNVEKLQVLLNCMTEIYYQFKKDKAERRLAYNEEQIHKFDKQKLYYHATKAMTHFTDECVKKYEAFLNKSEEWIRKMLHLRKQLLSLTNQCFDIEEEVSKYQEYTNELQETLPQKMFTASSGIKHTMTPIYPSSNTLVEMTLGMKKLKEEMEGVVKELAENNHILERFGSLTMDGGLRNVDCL

[5] = target: Serine/threonine-protein kinase PLK3 (Homo sapiens) (UniProt Q9H4B4); assay: Inhibition of Plk3 assessed as activity remaining at 10 uM
[6] = target: Cyclin-dependent kinase 2 (Homo sapiens) (UniProt P24941); assay: Inhibition of CDK2 assessed as activity remaining at 10 uM
[7] = target: Proto-oncogene tyrosine-protein kinase receptor Ret (Homo sapiens) (UniProt P07949); assay: Inhibition of Ret assessed as activity remaining at 10 uM
[8] = target: T2, Tyrosine-protein kinase ITK/TSK (Homo sapiens) (UniProt Q08881); assay: Inhibition of Itk assessed as activity remaining at 10 uM
T2 sequence (whole entry): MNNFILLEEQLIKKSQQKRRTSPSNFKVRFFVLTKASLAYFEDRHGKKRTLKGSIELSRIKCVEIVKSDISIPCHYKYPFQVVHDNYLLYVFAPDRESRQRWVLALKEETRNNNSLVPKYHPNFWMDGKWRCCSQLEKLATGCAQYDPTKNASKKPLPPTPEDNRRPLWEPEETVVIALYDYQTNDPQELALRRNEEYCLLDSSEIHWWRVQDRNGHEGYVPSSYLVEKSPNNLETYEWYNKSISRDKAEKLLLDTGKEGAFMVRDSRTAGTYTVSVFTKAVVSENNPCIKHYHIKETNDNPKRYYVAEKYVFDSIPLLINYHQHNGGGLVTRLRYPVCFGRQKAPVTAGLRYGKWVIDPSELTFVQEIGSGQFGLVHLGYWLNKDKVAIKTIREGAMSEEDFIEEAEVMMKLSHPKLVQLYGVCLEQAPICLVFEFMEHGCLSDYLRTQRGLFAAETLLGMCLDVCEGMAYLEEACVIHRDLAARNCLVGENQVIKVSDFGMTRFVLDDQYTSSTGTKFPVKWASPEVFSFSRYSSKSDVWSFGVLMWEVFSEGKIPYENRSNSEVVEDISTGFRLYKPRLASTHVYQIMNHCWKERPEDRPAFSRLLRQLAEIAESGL

[9] = target: T3, Tyrosine-protein kinase receptor TYRO3 (Homo sapiens) (UniProt Q06418); assay: Inhibition of Rse assessed as activity remaining at 10 uM
T3 sequence (whole entry): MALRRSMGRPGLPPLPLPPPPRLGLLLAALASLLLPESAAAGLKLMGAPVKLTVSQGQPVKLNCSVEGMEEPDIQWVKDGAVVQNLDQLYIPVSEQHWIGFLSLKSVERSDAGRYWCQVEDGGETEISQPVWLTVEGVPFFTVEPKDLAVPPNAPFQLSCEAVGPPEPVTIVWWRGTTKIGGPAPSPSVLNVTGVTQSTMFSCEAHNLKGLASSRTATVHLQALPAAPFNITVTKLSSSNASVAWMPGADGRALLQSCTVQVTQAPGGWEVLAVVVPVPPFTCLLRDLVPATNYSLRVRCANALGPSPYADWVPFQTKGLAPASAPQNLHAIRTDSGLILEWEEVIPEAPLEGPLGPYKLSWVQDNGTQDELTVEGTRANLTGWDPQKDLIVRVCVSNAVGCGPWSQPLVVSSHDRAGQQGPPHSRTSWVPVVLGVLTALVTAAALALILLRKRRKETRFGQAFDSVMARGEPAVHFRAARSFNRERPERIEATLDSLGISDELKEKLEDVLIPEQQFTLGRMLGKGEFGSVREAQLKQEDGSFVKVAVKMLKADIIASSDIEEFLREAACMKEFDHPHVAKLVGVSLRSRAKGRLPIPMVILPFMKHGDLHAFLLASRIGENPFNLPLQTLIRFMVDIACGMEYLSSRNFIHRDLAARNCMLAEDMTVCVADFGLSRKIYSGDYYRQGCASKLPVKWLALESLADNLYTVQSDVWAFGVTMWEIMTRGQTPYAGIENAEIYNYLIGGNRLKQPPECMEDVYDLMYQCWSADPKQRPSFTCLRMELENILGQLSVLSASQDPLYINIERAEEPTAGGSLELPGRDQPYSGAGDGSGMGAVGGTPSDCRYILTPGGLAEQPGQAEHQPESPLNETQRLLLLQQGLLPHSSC

[10] = target: Protein-tyrosine kinase 6 (Homo sapiens) (UniProt Q13882); assay: Inhibition of BRK assessed as activity remaining at 10 uM
Sequence of Protein-tyrosine kinase 6 (Homo sapiens) (Q13882 whole entry, looked up): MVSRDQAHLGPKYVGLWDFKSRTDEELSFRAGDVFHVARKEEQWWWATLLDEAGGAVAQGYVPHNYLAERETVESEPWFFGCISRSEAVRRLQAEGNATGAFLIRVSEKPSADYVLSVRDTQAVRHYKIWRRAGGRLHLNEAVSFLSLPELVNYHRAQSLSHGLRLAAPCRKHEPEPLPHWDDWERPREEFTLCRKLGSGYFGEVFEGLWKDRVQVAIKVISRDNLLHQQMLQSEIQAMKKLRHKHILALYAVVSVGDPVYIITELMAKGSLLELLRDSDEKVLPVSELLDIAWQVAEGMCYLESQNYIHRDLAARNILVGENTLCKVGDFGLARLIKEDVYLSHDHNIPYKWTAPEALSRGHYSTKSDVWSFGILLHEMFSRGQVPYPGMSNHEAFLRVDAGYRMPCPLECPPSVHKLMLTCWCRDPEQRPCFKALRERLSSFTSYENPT

Sequence of Fibroblast growth factor receptor 1 (Homo sapiens) (P11362 22-822 limits assumed): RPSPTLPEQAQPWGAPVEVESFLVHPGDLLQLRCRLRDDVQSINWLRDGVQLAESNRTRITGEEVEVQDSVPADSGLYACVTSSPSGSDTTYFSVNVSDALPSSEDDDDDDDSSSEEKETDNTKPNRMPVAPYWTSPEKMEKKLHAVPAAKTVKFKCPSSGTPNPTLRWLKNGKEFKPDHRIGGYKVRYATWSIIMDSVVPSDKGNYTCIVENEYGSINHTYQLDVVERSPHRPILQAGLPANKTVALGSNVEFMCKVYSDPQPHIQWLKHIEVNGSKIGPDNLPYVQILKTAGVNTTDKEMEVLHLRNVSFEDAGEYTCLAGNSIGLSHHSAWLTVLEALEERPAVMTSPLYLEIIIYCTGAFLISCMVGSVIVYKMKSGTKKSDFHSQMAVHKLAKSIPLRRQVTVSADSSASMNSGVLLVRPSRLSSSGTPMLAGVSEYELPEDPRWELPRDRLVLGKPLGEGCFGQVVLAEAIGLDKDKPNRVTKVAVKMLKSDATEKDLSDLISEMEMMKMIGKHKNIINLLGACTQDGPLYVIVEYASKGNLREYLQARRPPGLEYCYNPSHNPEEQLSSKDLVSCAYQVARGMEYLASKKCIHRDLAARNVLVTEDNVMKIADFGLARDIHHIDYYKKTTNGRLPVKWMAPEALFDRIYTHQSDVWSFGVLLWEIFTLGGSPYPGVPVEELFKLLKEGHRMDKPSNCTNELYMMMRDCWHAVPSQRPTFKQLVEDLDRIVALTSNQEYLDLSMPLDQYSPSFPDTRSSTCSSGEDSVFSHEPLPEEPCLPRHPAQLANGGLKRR
Sequence of Serine/threonine-protein kinase PLK3 (Homo sapiens) (Q9H4B4 whole entry, looked up): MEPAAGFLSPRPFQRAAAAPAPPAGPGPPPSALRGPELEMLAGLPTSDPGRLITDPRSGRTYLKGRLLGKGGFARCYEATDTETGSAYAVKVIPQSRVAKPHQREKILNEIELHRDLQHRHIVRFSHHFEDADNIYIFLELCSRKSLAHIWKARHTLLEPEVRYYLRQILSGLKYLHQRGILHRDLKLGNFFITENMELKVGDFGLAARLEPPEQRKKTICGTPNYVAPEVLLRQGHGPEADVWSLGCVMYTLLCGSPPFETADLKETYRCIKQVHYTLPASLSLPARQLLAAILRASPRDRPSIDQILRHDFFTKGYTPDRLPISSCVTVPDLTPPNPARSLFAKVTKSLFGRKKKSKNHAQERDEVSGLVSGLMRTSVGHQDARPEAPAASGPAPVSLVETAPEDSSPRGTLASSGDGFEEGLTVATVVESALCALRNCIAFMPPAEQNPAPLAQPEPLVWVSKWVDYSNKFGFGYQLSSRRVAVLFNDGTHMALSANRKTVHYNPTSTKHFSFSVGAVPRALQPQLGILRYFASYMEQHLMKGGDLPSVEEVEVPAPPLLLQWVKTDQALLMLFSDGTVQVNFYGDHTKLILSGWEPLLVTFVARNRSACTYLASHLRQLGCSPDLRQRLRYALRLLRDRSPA
Sequence of Hepatocyte growth factor receptor (Homo sapiens) (P08581 whole entry): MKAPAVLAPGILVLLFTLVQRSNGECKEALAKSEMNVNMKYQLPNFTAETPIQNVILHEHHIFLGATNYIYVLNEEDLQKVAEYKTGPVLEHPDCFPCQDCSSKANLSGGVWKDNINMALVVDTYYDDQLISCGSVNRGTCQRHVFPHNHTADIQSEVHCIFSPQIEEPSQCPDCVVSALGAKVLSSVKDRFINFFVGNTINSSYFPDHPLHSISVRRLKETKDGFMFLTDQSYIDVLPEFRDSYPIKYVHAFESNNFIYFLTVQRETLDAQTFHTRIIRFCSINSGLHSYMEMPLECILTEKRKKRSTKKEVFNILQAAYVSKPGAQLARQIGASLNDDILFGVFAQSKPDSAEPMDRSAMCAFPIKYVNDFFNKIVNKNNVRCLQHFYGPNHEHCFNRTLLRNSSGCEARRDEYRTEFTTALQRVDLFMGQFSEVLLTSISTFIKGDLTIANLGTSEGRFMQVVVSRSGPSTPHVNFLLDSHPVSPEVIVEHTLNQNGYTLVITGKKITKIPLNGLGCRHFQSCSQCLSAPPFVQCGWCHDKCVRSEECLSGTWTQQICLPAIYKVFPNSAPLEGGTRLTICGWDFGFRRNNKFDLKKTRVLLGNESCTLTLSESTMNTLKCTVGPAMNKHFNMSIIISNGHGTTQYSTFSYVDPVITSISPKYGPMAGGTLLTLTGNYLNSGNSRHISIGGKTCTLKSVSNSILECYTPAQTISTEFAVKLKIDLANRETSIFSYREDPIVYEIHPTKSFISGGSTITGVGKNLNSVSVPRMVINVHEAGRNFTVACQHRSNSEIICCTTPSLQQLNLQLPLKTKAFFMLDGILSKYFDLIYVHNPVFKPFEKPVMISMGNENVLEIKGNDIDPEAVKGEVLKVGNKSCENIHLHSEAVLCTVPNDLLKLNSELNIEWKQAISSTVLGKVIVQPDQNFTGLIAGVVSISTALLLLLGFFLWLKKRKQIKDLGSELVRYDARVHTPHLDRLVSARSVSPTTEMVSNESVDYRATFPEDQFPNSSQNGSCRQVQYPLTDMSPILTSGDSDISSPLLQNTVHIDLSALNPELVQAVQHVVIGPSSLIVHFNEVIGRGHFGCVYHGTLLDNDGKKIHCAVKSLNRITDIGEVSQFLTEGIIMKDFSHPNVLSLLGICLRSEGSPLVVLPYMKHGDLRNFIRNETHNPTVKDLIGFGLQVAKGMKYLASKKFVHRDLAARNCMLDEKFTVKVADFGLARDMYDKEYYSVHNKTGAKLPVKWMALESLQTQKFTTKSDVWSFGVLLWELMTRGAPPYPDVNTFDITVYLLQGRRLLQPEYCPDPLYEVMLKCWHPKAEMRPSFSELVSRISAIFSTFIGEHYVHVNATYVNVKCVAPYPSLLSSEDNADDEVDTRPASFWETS
Sequence of High affinity nerve growth factor receptor (Homo sapiens) (P04629 33-796 limits assumed): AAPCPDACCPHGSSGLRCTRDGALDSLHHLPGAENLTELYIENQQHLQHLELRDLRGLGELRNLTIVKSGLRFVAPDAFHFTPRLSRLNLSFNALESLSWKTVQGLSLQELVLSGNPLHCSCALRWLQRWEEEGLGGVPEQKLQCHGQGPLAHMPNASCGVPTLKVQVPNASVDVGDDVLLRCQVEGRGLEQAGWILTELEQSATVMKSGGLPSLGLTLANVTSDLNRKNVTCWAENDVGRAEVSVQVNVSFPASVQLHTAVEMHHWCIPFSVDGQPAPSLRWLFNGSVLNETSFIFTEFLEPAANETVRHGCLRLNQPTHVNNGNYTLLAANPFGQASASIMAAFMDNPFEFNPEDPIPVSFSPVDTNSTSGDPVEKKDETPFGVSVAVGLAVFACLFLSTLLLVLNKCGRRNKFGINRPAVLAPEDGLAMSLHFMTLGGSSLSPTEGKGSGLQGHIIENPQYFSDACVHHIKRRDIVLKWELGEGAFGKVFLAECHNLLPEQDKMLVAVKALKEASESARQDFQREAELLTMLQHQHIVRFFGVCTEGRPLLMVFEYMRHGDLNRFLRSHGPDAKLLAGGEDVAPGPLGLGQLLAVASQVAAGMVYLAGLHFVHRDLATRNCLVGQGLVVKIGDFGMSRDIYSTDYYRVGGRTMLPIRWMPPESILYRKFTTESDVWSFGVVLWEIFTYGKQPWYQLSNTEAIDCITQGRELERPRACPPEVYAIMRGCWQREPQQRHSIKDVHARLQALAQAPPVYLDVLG

Activity [1] | Activity [2] | Activity [3] | Activity [4] | Activity [5] | Activity [6] | Activity [7] | Activity [8] | Activity [9] | Activity [10] | SMILES
93% | 92% | 77% | 94% | 108% | 90% | 84% | 99% | 86% | 93% | O=c1[nH]c2ncc(-c3ccc(-c4nc[nH]n4)cc3)nc2n1CC1CCOCC1
94% | 94% | 86% | 91% | 89% | 81% | 77% | 90% | 74% | 92% | CC(C)(O)c1ccc(-c2cnc3[nH]c(=O)n(CC4CCCCC4)c3n2)cc1
63% | 66% | 61% | 77% | 94% | 81% | 80% | 96% | 88% | 82% | O=c1[nH]c2ncc(-c3ccc4[nH]cnc4c3)nc2n1CC1CCCCC1

Source: ChEMBL document CHEMBL1944561, “Discovery and SAR exploration of a novel series of imidazo[4,5-b]pyrazin-2-ones as potent and selective mTOR kinase inhibitors” (Bioorg Med Chem Lett, 2011)
